Assay results from PMC7785372, “An UPLC-MS/MS Method for Determination of Osimertinib in Rat Plasma: Application to Investigating the Effect of Ginsenoside Rg3 on the Pharmacokinetics of Osimertinib” (International Journal of Analytical Chemistry, 2020).
Where two headings read alike, the source gives them in different places.

Key:
[1] = Pharmacokinetic study of osimertinib in rats after oral administration, with or without ginsenoside Rg3 pretreatment; assay type: in vivo, Male Sprague-Dawley rats
Description: The rats were randomly divided into two groups (six rats for each group). Osimertinib was dissolved and suspended by 1% carboxymethylcellulose sodium solution. The Rg3 powder in Shenyi capsule was dissolved in saline. In the first period, ginsenoside Rg3 (5 mg/kg) was orally administered to the rats in group I for seven days, and the rats in the other group were orally treated with normal saline for seven days. In the second period, the rats were fasted overnight with free access to water before the experiment. After overnight fasting, ginsenoside Rg3 (5 mg/kg) plus osimertinib (10 mg/kg) was orally administered to the rats in group I, and the rats received oral ginsenoside Rg3 30 min prior to osimertinib at the eighth day. Rats in group II were only orally treated with osimertinib (10 mg/kg) at the eighth day. Blood samples (each 100 μL) were collected via the oculi chorioideae vein at 0.5, 1, 2, 3, 4, 5, 6, 7, 8, 10, 12, 15, and 24 h after treatment in heparinized tubes. The blood samples were immediately centrifuged at 3000 rpm for 10 min. The plasma was separated from blood samples and transferred to clean tubes and immediately stored at −80°C until further analysis. The plasma concentrations of osimertinib were determined according to the aforementioned developed UPLC-MS/MS method.
The pharmacokinetic parameters, including the maximal plasma concentration (Cmax), area under the plasma concentration-time curve (AUC), time for the maximal plasma concentration (Tmax), and mean residence time (MRT), were calculated through noncompartmental analysis by Phoenix WinNonlin (Pharsight Inc., USA, version 1.1) software.

[2] = Stability of osimertinib in rat plasma under various storage conditions (QC samples, UPLC-MS/MS); assay type: physicochemical; conditions: for Autosampler stability, RE / Autosampler stability, measured concentration Mean ± SD: processed rat plasma sample, 4°C for 24 h; for Autosampler stability, RE / Autosampler stability, measured concentration Mean ± SD / Short-term stability, RE / Short-term stability, measured concentration Mean ± SD / Freeze-thawing stability, RE / Freeze-thawing stability, measured concentration Mean ± SD / Long-term stability, RE / Long-term stability, measured concentration Mean ± SD: n = 6; for Short-term stability, RE / Short-term stability, measured concentration Mean ± SD: room temperature for 6 h; for Freeze-thawing stability, RE / Freeze-thawing stability, measured concentration Mean ± SD: −80°C for 3 cycles
Description: (1) Short-Term Stability. QC samples (low, medium, and high levels) were assessed by analyzing QC samples kept at room temperature for six hours.
(2) Autosampler Stability. QC samples (low, medium, and high levels) were evaluated after the processed QC samples were placed in an autosampler (4°C) for 24 hours.
(3) Freeze-Thaw Stability. QC samples (low, medium, and high levels) were investigated after storage at room temperature for 8 h, followed by three freeze-thaw cycles (thawing at room temperature during 2 h and freezing again at −80°C for at least 12 h).
(4) Long-Term Stability. QC samples (low, medium, and high levels) were determined by analyzing after storage at −80°C for 28 days.

[3] = design: method as in PMID 31371986; conditions: rats; cited from earlier work
[4] = design: method as in PMID 29381826; conditions: patients with advanced NSCLC, cited from earlier work
P-gp = system: P-gp; design: method as in PMID 31371986; conditions: in vitro; cited from earlier work
BCRP = system: BCRP; design: method as in PMID 31371986; conditions: in vitro; cited from earlier work
cytochrome P450 (CYP3A) = system: cytochrome P450 (CYP3A); design: method as in PMID 31371986; conditions: preclinical studies; cited from earlier work
[5] = male, Sprague-Dawley, rat, in vivo, po, 10 mg/kg
[6] = rat plasma, spiked 3 ng/mL, −80°C for 28 days
[7] = rat plasma, spiked 30 ng/mL, −80°C for 28 days
[8] = rat plasma, spiked 350 ng/mL, −80°C for 28 days

C=CC(=O)Nc1cc(Nc2nccc(-c3cn(C)c4ccccc34)n2)c(OC)cc1N(C)CCN(C)C [Osimertinib]
AUC0-t [1, 5]: 2820 ± 1200 ng·h/mL | CL/F [1, 5]: 330 ± 135 mL/min/kg | Vz/F [1, 5]: 130 ± 58 L/kg | half-life [1, 5]: 4.46 ± 0.94 h | AUC0-t ([1]; male, Sprague-Dawley, rat, in vivo, po, 10 mg/kg, AUC0-t): 2820 ± 1210 ng·h/mL | AUC(0-inf) ([1]; male, Sprague-Dawley, rat, in vivo, po, 10 mg/kg, AUC0-∞): 2900 ± 1210 ng·h/mL | Cmax ([1]; male, Sprague-Dawley, rat, in vivo, po, 10 mg/kg, C max): 317 ± 138 ng/mL | CL/F ([1]; male, Sprague-Dawley, rat, in vivo, po, 10 mg/kg, CL/F): 330 mL/min/kg | MRT last ([1]; male, Sprague-Dawley, rat, in vivo, po, 10 mg/kg, MRT0-t): 6.88 ± 0.62 h | Tmax ([1]; male, Sprague-Dawley, rat, in vivo, po, 10 mg/kg, T max): 3.33 ± 0.82 h | Vd/F ([1]; male, Sprague-Dawley, rat, in vivo, po, 10 mg/kg, Vz/F): 130 ± 58.1 L/kg | Autosampler stability, RE ([2]; spiked 3 ng/mL): 0.6% | Autosampler stability, measured concentration Mean ± SD ([2]; spiked 3 ng/mL): 3.02 ± 0.01 ng/mL | Autosampler stability, RE ([2]; spiked 30 ng/mL): −4.2% | Autosampler stability, measured concentration Mean ± SD ([2]; spiked 30 ng/mL): 28.7 ± 0.8 ng/mL | Autosampler stability, RE ([2]; spiked 350 ng/mL): 2.5% | Autosampler stability, measured concentration Mean ± SD ([2]; spiked 350 ng/mL): 359 ± 26 ng/mL | Short-term stability, RE ([2]; rat plasma, spiked 3 ng/mL): 6.8% | Short-term stability, measured concentration Mean ± SD ([2]; rat plasma, spiked 3 ng/mL): 3.20 ± 0.14 ng/mL | Freeze-thawing stability, RE ([2]; rat plasma, spiked 3 ng/mL): 1.0% | Freeze-thawing stability, measured concentration Mean ± SD ([2]; rat plasma, spiked 3 ng/mL): 3.03 ± 0.02 ng/mL | Long-term stability, RE [2, 6]: −1.5% | Long-term stability, measured concentration Mean ± SD [2, 6]: 2.96 ± 0.24 ng/mL | Short-term stability, RE ([2]; rat plasma, spiked 30 ng/mL): 0.4% | Short-term stability, measured concentration Mean ± SD ([2]; rat plasma, spiked 30 ng/mL): 30.1 ± 1.0 ng/mL | Freeze-thawing stability, RE ([2]; rat plasma, spiked 30 ng/mL): 0.4% | Freeze-thawing stability, measured concentration Mean ± SD ([2]; rat plasma, spiked 30 ng/mL): 30.1 ± 1.0 ng/mL | Long-term stability, RE [2, 7]: 9.1% | Long-term stability, measured concentration Mean ± SD [2, 7]: 32.7 ± 0.8 ng/mL | Short-term stability, RE ([2]; rat plasma, spiked 350 ng/mL): −2.7% | Short-term stability, measured concentration Mean ± SD ([2]; rat plasma, spiked 350 ng/mL): 341 ± 3 ng/mL | Freeze-thawing stability, RE ([2]; rat plasma, spiked 350 ng/mL): −0.3% | Freeze-thawing stability, measured concentration Mean ± SD ([2]; rat plasma, spiked 350 ng/mL): 349 ± 6 ng/mL | Long-term stability, RE [2, 8]: 2.4% | Long-term stability, measured concentration Mean ± SD [2, 8]: 359 ± 7 ng/mL | Stability under the conditions investigated ([2]; rat plasma, three QC concentrations, room temperature 6 h, autosampler 24 h, three freeze-thaw cycles (−80°C), −80°C for 28 days, all within ±15% of nominal): stable | MRT [3]: 14.51 h | Tmax [3]: about 4.48 h | t1/2 [3]: 14.96 h | Increase of exposure (AUC) ([4]; coadministered with itraconazole (strong CYP3A4 inhibitor)): 24% | Decrease of exposure (AUC) ([4]; coadministered with rifampicin (CYP3A4 inducer)): 78% | Substrate of P-gp (P-gp): substrate | Substrate of BCRP (BCRP): substrate | Metabolizing enzyme (cytochrome P450 (CYP3A)): principally metabolized by cytochrome P450 (CYP3A)

CC(C)=CCC[C@](C)(O)[C@H]1CC[C@]2(C)[C@@H]1[C@H](O)C[C@@H]1[C@@]3(C)CC[C@H](O[C@@H]4O[C@H](CO)[C@@H](O)[C@H](O)[C@H]4O[C@@H]4O[C@H](CO)[C@@H](O)[C@H](O)[C@H]4O)C(C)(C)[C@@H]3CC[C@]12C [Rg3, Ginsenoside Rg3]
Effect on the main pharmacokinetic parameters of osimertinib ([1]; Rg3 5 mg/kg oral for seven days, coadministered with osimertinib 10 mg/kg oral, rats): no significant effect
